Results as given in the supplement of paper PMC10307832.

How the values were obtained:
Experiment in all cases: relative viability (nuclei count vs DMSO), 5 days (fraction); higher = more cells survive
4EGI-1 + Palbociclib = compound: O=C(O)C(Cc1ccccc1[N+](=O)[O-])=NNc1nc(-c2ccc(Cl)c(Cl)c2)cs1 (mixture of isomers) [4EGI-1] + CC(=O)c1c(C)c2cnc(Nc3ccc(N4CCNCC4)cn3)nc2n(C2CCCC2)c1=O [Palbociclib] (partner 0.5 µM)
Method in brief: (§1)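 Relative viability was taken as the ratio of nuclei in treated wells to nuclei in vehicle wells. Lung cancer cell lines in 1536-well plates received compounds by pin tool one day after seeding, either one drug alone or a fixed anchor-drug dose plus five library-drug doses (not always all listed) in √10 steps. Nuclei were counted on 4× images after 5 days of treatment, and values are medians of duplicate plates.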

XMD8-85 + Palbociclib = compound: CN1CCN(CC1)C2=CC(=C(C=C2)NC3=NC=C4C(=N3)N(C5=CC=CC=C5C(=O)N4C)C)OC [XMD8-85] + CC(=O)c1c(C)c2cnc(Nc3ccc(N4CCNCC4)cn3)nc2n(C2CCCC2)c1=O [Palbociclib] (partner 0.5 µM)
Method in brief: as §1

4EGI-1 + Olaparib = compound: O=C(O)C(Cc1ccccc1[N+](=O)[O-])=NNc1nc(-c2ccc(Cl)c(Cl)c2)cs1 (mixture of isomers) [4EGI-1] + O=C(c1cc(Cc2n[nH]c(=O)c3ccccc23)ccc1F)N1CCN(C(=O)C2CC2)CC1 [Olaparib] (partner 8 µM)
Method in brief: as §1

4EGI-1 + Pictilisib = compound: O=C(O)C(Cc1ccccc1[N+](=O)[O-])=NNc1nc(-c2ccc(Cl)c(Cl)c2)cs1 (mixture of isomers) [4EGI-1] + CS(=O)(=O)N1CCN(Cc2cc3nc(-c4cccc5[nH]ncc45)nc(N4CCOCC4)c3s2)CC1 [Pictilisib] (partner 1 µM)
Method in brief: as §1

| Cell Line | relative viability (4EGI-1 + Palbociclib; first compound 0.5 µM) | relative viability (4EGI-1 + Palbociclib; first compound 1.581 µM) | relative viability (4EGI-1 + Palbociclib; first compound 5 µM) | relative viability (4EGI-1 + Palbociclib; first compound 15.81 µM) | relative viability (4EGI-1 + Palbociclib; first compound 50 µM) | relative viability (XMD8-85 + Palbociclib; first compound 0.08 µM) | relative viability (XMD8-85 + Palbociclib; first compound 0.253 µM) | relative viability (XMD8-85 + Palbociclib; first compound 0.8 µM) | relative viability (XMD8-85 + Palbociclib; first compound 2.53 µM) | relative viability (XMD8-85 + Palbociclib; first compound 8 µM) | relative viability (4EGI-1 + Olaparib; first compound 0.5 µM) | relative viability (4EGI-1 + Olaparib; first compound 1.581 µM) | relative viability (4EGI-1 + Olaparib; first compound 5 µM) | relative viability (4EGI-1 + Olaparib; first compound 15.81 µM) | relative viability (4EGI-1 + Olaparib; first compound 50 µM) | relative viability (4EGI-1 + Pictilisib; first compound 0.5 µM) | relative viability (4EGI-1 + Pictilisib; first compound 1.581 µM) | relative viability (4EGI-1 + Pictilisib; first compound 5 µM) | relative viability (4EGI-1 + Pictilisib; first compound 15.81 µM) | relative viability (4EGI-1 + Pictilisib; first compound 50 µM) |
| --- | --- | --- | --- | --- | --- | --- | --- | --- | --- | --- | --- | --- | --- | --- | --- | --- | --- | --- | --- | --- |
| HCC-15 | 0.677 | 0.747 | 0.788 | 0.679 | 0.292 | 0.728 | 0.705 | 0.751 | 0.708 | 0.619 | 0.716 | 0.691 | 0.634 | 0.676 | 0.517 | 0.921 | 0.705 | 0.755 | 0.728 | 0.574 |
| ChaGo-K-1 | 0.95 | 0.936 | 0.973 | 1.01 | 0.556 | 0.99 | 0.965 | 0.963 | 0.931 | 0.899 | 0.386 | 0.406 | 0.407 | 0.34 | 0.217 | 0.612 | – | 0.759 | 0.453 | 0.219 |
| SW 900 | 0.552 | 0.573 | 0.69 | 0.395 | 0.234 | 0.553 | 0.535 | 0.594 | 0.496 | 0.324 | 0.923 | 0.812 | 0.936 | 0.552 | 0.23 | – | – | – | – | – |
| NCI-H727 | 0.689 | 0.617 | 0.641 | 0.604 | 0.62 | – | 0.689 | 0.6 | 0.6 | – | 0.638 | 0.679 | 0.717 | 0.496 | 0.592 | 0.382 | 0.451 | 0.26 | 0.344 | 0.328 |
| NCI-H596 | – | – | – | – | – | – | – | – | – | – | 0.726 | 0.664 | 0.786 | 0.568 | 0.464 | 0.439 | 0.394 | 0.394 | 0.4 | 0.352 |
| NCI-H2347 | 0.427 | 0.405 | 0.447 | 0.413 | 0.34 | 0.523 | 0.457 | 0.395 | 0.456 | 0.352 | 0.555 | 0.487 | 0.567 | 0.607 | 0.533 | 0.469 | 0.488 | 0.579 | 0.738 | 0.361 |
| NCI-H2126 | 0.324 | 0.371 | 0.326 | 0.343 | 0.339 | 0.415 | 0.394 | 0.378 | 0.32 | 0.387 | 1 | 0.927 | 0.858 | 0.942 | 0.654 | 0.525 | 0.455 | 0.581 | 0.445 | 0.42 |
| HCC-78 | 0.471 | 0.462 | 0.434 | 0.432 | 0.488 | 0.544 | 0.459 | 0.564 | 0.503 | 0.435 | 1.05 | – | 0.881 | 0.816 | 1.13 | 0.206 | 0.257 | 0.153 | 0.191 | 0.234 |
| HARA | 0.32 | 0.243 | 0.295 | 0.222 | 0.202 | 0.278 | 0.287 | 0.279 | 0.247 | 0.195 | 0.848 | 0.68 | 1 | 0.515 | 0.18 | 0.48 | 0.428 | 0.46 | 0.375 | 0.266 |
